From US12285393B2, “Roles of modulators of intersectin-Cdc42 signaling in Alzheimer's disease” (priority 2017, dated 2025)

Key:
[1] = system: Swiss 3T3 cells; test: Immunofluorescence, cell morphology and bradykinin-mediated activation; type: cell-based
Method: Immunofluorescence: Serum-starved Swiss 3T3 cells were pretreated with compound for 2 h before the addition of bradykinin (100 ng/mL) for 20 min. Cells were fixed in 4% paraformaldehyde for 15 min at RT and stored in PBS. Fixed cells were treated with 0.5% Triton for 30 min at RT, 100 mM Glycine 30 min at RT, and 10% BSA for 30 min at 37° C. Primary antibody for GM130 (1:1000, BD Biosciences, Franklin Lakes, New Jersey, United States of America) was used to probe for 1 h at RT followed by CY3-conjugated secondary antibody (1:1000) for 1 h at RT in the dark. Actin was stained with fluorescein-conjugated phalloidin (1:300). Hoechst (1:2500) was used to stain the nuclei. Coverslips were mounted onto slides using antifade medium from Life Technologies (Carlsbad, California, United States of America). Images were taken with a Zeiss Axiovert S100 microscope (Carl Zeiss; Thornwood, New York, United States of America).

[2] = system: mice; test: Long-term survival after one injection; type: in vivo
Method: Long-term Survival. Groups of 10 mice were treated with one injection of ZCL278 (up to 0.8 mg/g), ZCL279 (up to 0.6 mg/g), or ZCL367 (up to 1.6 mg/g) to examine potential lethal dosage (the maximal dosage tested when no mice died). […] Durations longer than 3 months have not been tested. As a reference, working dosage for the behavioral assessment described below used 20 ug/g for injection, […] than the highest dosage of 0.8 mg/g tested in the long-term survival experiment.

[3] = Solubility profile by optical density; type: physicochemical; settings: for Ratio (optical density solution/solvent alone) / optical density of solution: RT, 10 minutes
Text: ZCL278, ZCL279, and ZCL367 were all tested for solubility in the 5 FDA approved solvents to be used in humans. […] Results are shown below in Tables 2-4. Ratio refers to the optical density of the solution comprising the modulator compound/the optical density of the carder/solvent alone.

[4] = target: T1, Cdc42 (Homo sapiens, UniProt P60953); test: Rho-GEF IC50 assay (GEF/DH domain-mediated mant-GTP binding); type: biochemical; set-up: purchased Cytoskeleton Inc; settings: read-out: IC50, GEF/DH domain-mediated mant-GTP binding/Cdc42 activation
Method: (§1) Rho-GEF IC50 Assay: Rho-GEF assay (Cytoskeleton Inc., Denver, Colorado, United States of America) was conducted per manufacturer's instructions (λex=360 nm, λem=460 nm). Briefly, a solution (50 μL) of purified Rho GTPase (1 μM) and mant-GTP (1.5 μM) with or without compound (0.001-500 μM) was prepared and the absorbance monitored for 10-30 min to obtain the background/baseline. The addition of purified GEF/DH domain (0.08-0.2 μM) was carried out simultaneously and the absorbance was recorded for 30-45 min. The linear slope following the addition of the GEF was calculated and expressed as percentage of the control and plotted on an IC50 curve.

[5] = system: C57BL/6 mice; test: Toxicity experiment, I.P. injection; type: in vivo; settings: 0.4 mg/g or 0.8 mg/g body weight I.P.; 1 hour or 2 weeks
Method: (§2) ZCL 278 Toxicity Experiment: Individual C57BL/6 mice of 4-6 months of age from Jackson Laboratory (Bar Harbor, Maine, United States of America) were submitted to ZCL278 treatment for 5 minutes, 30 minutes, 2 hours and 24 hours. The dosage of ZCL278 for each mouse was 0.8 mg/g body weight delivered via intraperitoneal (I.P.) injection of a 15 mg/ml solution of ZCL278 was dissolved in the sesame oil (10% DMSO).
as §2, with “279” for “278”, “ZCL279” for “ZCL278”, “0.6” for “0.8”
ZCL367 Toxicity Experiment: Individual C57BL/6 mice of 4-6 months of age from Jackson Laboratory (Bar Harbor, Maine, United States of America) were submitted to ZCL367 treatment for 1 hour or 2 weeks. The dosage of ZCL367 for each time period was 0.4 mg/g body weight or 0.8 mg/g body weight, delivered via I.P. injection. […] Mice were sacrificed after end of 1 hour or 2 weeks.

[6] = target: T2, RhoA (Homo sapiens, UniProt P61586); test: Rho-GEF IC50 assay (GEF/DH domain-mediated mant-GTP binding); type: biochemical
T2 construct: purchased Cytoskeleton Inc
Method: as §1

[7] = target: T3, Rac1 (Homo sapiens, UniProt P63000); test: as above; type: biochemical
T3 construct: purchased Cytoskeleton Inc
Method: as §1

[8] = target: T1, Cdc42; test: mant-GTP binding to Cdc42 with or without GEF/DH domain; type: biochemical; set-up: purchased Cytoskeleton Inc; settings: 5-500 μM
Method: (§3) Cdc42 (1 μM) was incubated with mant-GTP (1.5 μM) and varying concentrations of ZCL278, ZCL279, or ZCL367 (5-500 μM). Fluorescent readings were taken every minute for 10 m to acquire the baseline. The GEF/DH domain (0.08-0.2 μM) was added followed by readings taken every minute for another 30 m. The linear phase was calculated from within the time period of 12-22 m. Cdc42 (1 μM) was incubated with mant-GTP (1.5 μM) and varying concentrations of ZCL278, ZCL279, or ZCL367 (5-500 μM). Fluorescent readings were taken every minute for 30 m to monitor the binding of mant-GTP in the absence of GEF/DH domain.

[9] = target: T1, Cdc42; test: Cdc42-GEF-assay, additional compound screening; type: biochemical; set-up: purchased Cytoskeleton Inc; settings: percentages of ZCL367 normalized to batch; less than 100% = more potent inhibitor
Method: as §1, §3
Cdc42-GEF-assays were conducted on additional screening compounds in batches of 9 compounds per batch as described above in Example 2 using ZCL278 and ZCL367 as standards. Screening compounds were taken from the Specs Chemistry Database of 197,000 compounds for small molecule or the National Cancer Institute Compound Library. […] These compounds promote Cdc42-mantGTP binding without GEF. It is possible that these compounds can inhibit Cdc42-mantGTP binding with GEF. […] These compounds appear to have activity like ZCL279. […] However, upon the addition of GEF, the compounds appear to facilitate the binding of mantGTP to Cdc42 (high assay slope, relative to ZCL278)

[10] = Polyethylene Glycol300 (PEG-300), 30%

T1 sequence (P60953 whole entry, the tested form may be a part): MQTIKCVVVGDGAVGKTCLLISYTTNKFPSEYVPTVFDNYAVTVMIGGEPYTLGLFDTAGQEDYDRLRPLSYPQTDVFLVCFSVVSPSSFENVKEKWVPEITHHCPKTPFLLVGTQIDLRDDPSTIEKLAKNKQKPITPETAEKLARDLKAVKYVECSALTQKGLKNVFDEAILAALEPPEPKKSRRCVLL
T2 sequence (P61586 whole entry, the tested form may be a part): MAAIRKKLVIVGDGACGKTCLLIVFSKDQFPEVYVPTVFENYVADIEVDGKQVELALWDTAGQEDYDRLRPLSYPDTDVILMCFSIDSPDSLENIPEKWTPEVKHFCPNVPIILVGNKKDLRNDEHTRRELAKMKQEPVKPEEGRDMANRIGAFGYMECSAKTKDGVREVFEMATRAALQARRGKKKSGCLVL

For `O=C(N/N=C/c1ccccc1O)c1cc(O)cc(O)c1` [ZCL367, (E)-3,5-dihydroxy-N′-(2-hydroxybenzylidene)benzohydrazide], the bradykinin-mediated activation ([1]; Swiss 3T3 cells, bradykinin 100 ng/mL) was “inhibit bradykinin-mediated activation”, the “changes to cell morphology” value ([1]; after 4 h of treatment, more drastic after six hours) was “no effects on cell morphology” and the “Lethal Dosage” value ([2]; mouse, in vivo) was 0.8 mg/g. For the same molecule, the “Longest Dosing Duration” value ([2]; mouse, in vivo) was 2 months, the “deaths in long-term survival” value ([2]; one injection, 1.6 mg/g, in 1 month) was “one (day 20) out of four mice died” and the “Ratio (optical density solution/solvent alone)” value ([3]; 1,2-Propanediol, 40%) was 2.667. For the same molecule, the “optical density of solution” value ([3]; 1,2-Propanediol, 40%) was 0.104, the “Ratio (optical density solution/solvent alone)” value ([3]; Dimethyl Sulfoxide (DMSO)) was 1.048 and the “optical density of solution” value ([3]; Dimethyl Sulfoxide (DMSO)) was 0.044. The “Ratio (optical density solution/solvent alone)” value ([3]; Pluronic F-68, 10%) was 2.026, the “optical density of solution” value ([3]; Pluronic F-68, 10%) was 0.079 and the “Ratio (optical density solution/solvent alone)” value [3, 10] was 2.333. For the same molecule, the “optical density of solution” value [3, 10] was 0.091, the “Ratio (optical density solution/solvent alone)” value ([3]; Sesame Oil) was 2.636 and the “optical density of solution” value ([3]; Sesame Oil) was 0.116. The “Ratio (optical density solution/solvent alone)” value ([3]; Sterile Water) was 5.211, the “optical density of solution” value ([3]; Sterile Water) was 0.198 and the “Ratio (optical density solution/solvent alone)” value ([3]; Tween-80, 0.4%) was 3.579. For the same molecule, the “optical density of solution” value ([3]; Tween-80, 0.4%) was 0.136, the “Ratio (optical density solution/solvent alone)” value ([3]; dPBS) was 2.974 and the “optical density of solution” value ([3]; dPBS) was 0.113. The solubility ([3]; in DM19) was “completely soluble”, the IC50 [4] was 98 nM and the “gross anatomic toxicity (liver, kidney, spleen)” value [5] was “no gross anatomic toxicity”. The IC50 [6] was 29700 nM, the IC50 [7] was 190 nM and the “effect on Cdc42 (mant-GTP binding)” value ([8]; in the absence of GEF domain) was “has no effect”. The “effect on Cdc42 (mant-GTP binding)” value ([8]; in the presence of GEF domain) was “acts as an inhibitor” and the “% ZCL367 (inhibitor activity)” value [9] was 100%.
